Assay results as given in the supplement of paper PMC10307832.

Key:
Assay in all cases: relative viability (nuclei count vs DMSO), 5 days (fraction); higher = more cells survive
COR-L 105 = test system: COR-L 105
Summary of the method: (§1)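 Relative viability divides the nuclei count in treated wells by that in vehicle wells. Lung cancer cell lines were seeded in 1536-well plates, dosed by pin tool the next day, and fixed and stained after 5 days in one step with final 0.05% Triton X-100, 1% formaldehyde and 1 ug/ml Hoechst. Dosing was a single drug or a fixed anchor-drug dose plus five library-drug doses (not always all listed) in √10 steps, and values are medians of duplicate plates imaged at 4×.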

COR-L23 = test system: COR-L23
Summary of the method: as §1

EKVX = test system: EKVX
Summary of the method: as §1

HARA = test system: HARA
Summary of the method: as §1

HOP-62 = test system: HOP-62
Summary of the method: as §1

NCI-H1355 = test system: NCI-H1355
Summary of the method: as §1

NCI-H1395 = test system: NCI-H1395
Summary of the method: as §1

NCI-H1734 = test system: NCI-H1734
Summary of the method: as §1

NCI-H1755 = test system: NCI-H1755
Summary of the method: as §1

NCI-H1793 = test system: NCI-H1793
Summary of the method: as §1

NCI-H1993 = test system: NCI-H1993
Summary of the method: as §1

NCI-H2009 = test system: NCI-H2009
Summary of the method: as §1

NCI-H2170 = test system: NCI-H2170
Summary of the method: as §1

NCI-H2228 = test system: NCI-H2228
Summary of the method: as §1

NCI-H2342 = test system: NCI-H2342
Summary of the method: as §1

NCI-H2347 = test system: NCI-H2347
Summary of the method: as §1

NCI-H322M = test system: NCI-H322M
Summary of the method: as §1

NCI-H358 = test system: NCI-H358
Summary of the method: as §1

NCI-H522 = test system: NCI-H522
Summary of the method: as §1

NCI-H647 = test system: NCI-H647
Summary of the method: as §1

NCI-H838 = test system: NCI-H838
Summary of the method: as §1

PC-14 = test system: PC-14
Summary of the method: as §1

SK-MES-1 = test system: SK-MES-1
Summary of the method: as §1

UMC-11 = test system: UMC-11
Summary of the method: as §1

CC(C)Oc1cc(Nc2nc(N[C@@H](C)c3ccc(F)cn3)ncc2Cl)n[nH]1 [AZ23] + CC(=O)Nc1cccc(-n2c(=O)n(C3CC3)c(=O)c3c(Nc4ccc(I)cc4F)n(C)c(=O)c(C)c32)c1 [Trametinib] (partner 0.02 µM)
relative viability (COR-L 105; first compound 0.01 µM): 0.432
relative viability (COR-L 105; first compound 0.03162 µM): 0.371
relative viability (COR-L 105; first compound 0.3162 µM): 0.478
relative viability (COR-L23; first compound 0.01 µM): 0.446
relative viability (COR-L23; first compound 0.03162 µM): 0.659
relative viability (COR-L23; first compound 0.3162 µM): 0.612
relative viability (EKVX; first compound 0.01 µM): 0.346
relative viability (EKVX; first compound 0.03162 µM): 0.351
relative viability (EKVX; first compound 0.3162 µM): 0.332
relative viability (HARA; first compound 0.01 µM): 0.666
relative viability (HARA; first compound 0.03162 µM): 0.886
relative viability (HARA; first compound 0.3162 µM): 0.399
relative viability (HOP-62; first compound 0.01 µM): 0.377
relative viability (HOP-62; first compound 0.03162 µM): 0.382
relative viability (HOP-62; first compound 0.3162 µM): 0.356
relative viability (NCI-H1355; first compound 0.01 µM): 0.359
relative viability (NCI-H1355; first compound 0.03162 µM): 0.417
relative viability (NCI-H1355; first compound 0.3162 µM): 0.353
relative viability (NCI-H1395; first compound 0.03162 µM): 1.06
relative viability (NCI-H1395; first compound 0.3162 µM): 1.06
relative viability (NCI-H1734; first compound 0.01 µM): 0.733
relative viability (NCI-H1734; first compound 0.03162 µM): 0.726
relative viability (NCI-H1734; first compound 0.3162 µM): 0.436
relative viability (NCI-H1755; first compound 0.01 µM): 0.828
relative viability (NCI-H1755; first compound 0.03162 µM): 0.774
relative viability (NCI-H1755; first compound 0.3162 µM): 0.708
relative viability (NCI-H1793; first compound 0.01 µM): 0.45
relative viability (NCI-H1793; first compound 0.03162 µM): 0.407
relative viability (NCI-H1793; first compound 0.3162 µM): 0.347
relative viability (NCI-H1993; first compound 0.01 µM): 0.551
relative viability (NCI-H1993; first compound 0.03162 µM): 0.493
relative viability (NCI-H1993; first compound 0.3162 µM): 0.449
relative viability (NCI-H2009; first compound 0.01 µM): 0.257
relative viability (NCI-H2009; first compound 0.03162 µM): 0.243
relative viability (NCI-H2009; first compound 0.3162 µM): 0.284
relative viability (NCI-H2170; first compound 0.01 µM): 1.14
relative viability (NCI-H2170; first compound 0.03162 µM): 0.953
relative viability (NCI-H2170; first compound 0.3162 µM): 0.994
relative viability (NCI-H2228; first compound 0.01 µM): 0.523
relative viability (NCI-H2228; first compound 0.03162 µM): 0.631
relative viability (NCI-H2228; first compound 0.3162 µM): 0.401
relative viability (NCI-H2342; first compound 0.01 µM): 0.752
relative viability (NCI-H2342; first compound 0.03162 µM): 0.828
relative viability (NCI-H2342; first compound 0.3162 µM): 0.72
relative viability (NCI-H2347; first compound 0.01 µM): 0.272
relative viability (NCI-H2347; first compound 0.03162 µM): 0.272
relative viability (NCI-H2347; first compound 0.3162 µM): 0.232
relative viability (NCI-H322M; first compound 0.01 µM): 0.454
relative viability (NCI-H322M; first compound 0.03162 µM): 0.481
relative viability (NCI-H322M; first compound 0.3162 µM): 0.565
relative viability (NCI-H358; first compound 0.01 µM): 0.116
relative viability (NCI-H358; first compound 0.03162 µM): 0.137
relative viability (NCI-H358; first compound 0.3162 µM): 0.124
relative viability (NCI-H522; first compound 0.01 µM): 0.894
relative viability (NCI-H522; first compound 0.03162 µM): 0.796
relative viability (NCI-H522; first compound 0.3162 µM): 0.617
relative viability (NCI-H647; first compound 0.01 µM): 0.61
relative viability (NCI-H647; first compound 0.03162 µM): 0.58
relative viability (NCI-H647; first compound 0.3162 µM): 0.509
relative viability (NCI-H838; first compound 0.01 µM): 0.615
relative viability (NCI-H838; first compound 0.03162 µM): 0.561
relative viability (NCI-H838; first compound 0.3162 µM): 0.456
relative viability (PC-14; first compound 0.01 µM): 0.599
relative viability (PC-14; first compound 0.03162 µM): 0.783
relative viability (PC-14; first compound 0.3162 µM): 0.749
relative viability (SK-MES-1; first compound 0.03162 µM): 0.578
relative viability (SK-MES-1; first compound 0.3162 µM): 0.59
relative viability (UMC-11; first compound 0.01 µM): 0.591
relative viability (UMC-11; first compound 0.03162 µM): 0.872
relative viability (UMC-11; first compound 0.3162 µM): 0.729
